Earlier results in patent US6815409B2, “Gel laundry detergent and/or pretreater which piles up after dispensing” (Unilever Home & Personal Care USA division of Conopco, Inc., priority 2002, dated 2004).

Details: chain length 16; cited from Proc. R. Soc. London, A133, 140, 1931

Structure (SMILES): CCCCCCCCCCCCCCCC(=O)O [Fatty acid chain length 16]
- Measured pKa value: 8.5
